Laboratory results from patent US20170105953A1, “METHOD FOR SUPPRESSING DIABETES AND/OR HEPATIC LIPIDS USING TORMENTIC ACID” (priority 2015, published 2017).
Several values for one entry are separate records, joined by “and”; a condition that tells them apart may be missing. Identical values can stand only once. Entries after “also recorded” stand apart in the source; their conditions may differ.

Legend:
[1] = test system: AMPK; assay: western blot, phospho-AMPK (Thr172)/total-AMPK in liver tissue and skeletal muscle; assay type: in vivo, C57BL/6J mice; conditions: HF diet-fed mice
Description: (§1) FIG. 4A is a western blot analysis showing the protein contents of GLUT4 in skeletal muscle, and phospho-AMPK (Thr172) and total-AMPK (Thr172) in both liver tissue and skeletal muscle, and phospho-Akt (Ser473) and total-Akt (Ser473) in skeletal muscle of the mice receiving tormentic acid (PTA) by oral gavage for 4 weeks; and
(§2) FIG. 4B is a diagram showing the protein contents of GLUT4 in skeletal muscle, the expression levels of phospho-AMPK (Thr172) to total AMPK in both liver tissue and skeletal muscle, and quantified results from FIG. 4A for the phosphorylation status of Akt (p-Akt normalized to total Akt (pAkt/Akt)) in skeletal muscle of the mice receiving tormentic acid (PTA) by oral gavage for 4 weeks.
(§3) For part 2, C57BL/6J mice (4 weeks old) were obtained from the National Laboratory Animal Breeding and Research Center. The mice were divided randomly into two groups after 7 days acclimation. The control (CON) group (n=9) was fed a low-fat diet (diet 12450B, Research Diets, Inc., New Brunswick, N.J., USA), whereas the experimental group was fed a 45% high-fat diet (diet 12451, Research Diets, Inc.) for 12 weeks. The compositions of the experimental diets are given in previous studies. After 8 weeks, the high-fat treated mice were randomly subdivided into four groups (n=9) including PTA1 (0.06 g/kg/day), PTA2 (0.12 g/kg/day) or rosiglitazone (Rosi; 1% methylcellulose, 10 mg/kg body weight) (GlaxoSmithKline) or vehicle and treated by oral gavage one time per day from the 9th to 12th weeks, while the mice were still on the high-fat diet, whereas the CON and high-fat control (HF) mice were treated with vehicle only. At the end, food was withheld from the animals (from 10 p.m. to 10 a.m.). The next day, the mice were sacrificed for blood and tissue collection and analysis. Livers, skeletal muscles, and white adipose tissues (WATs) (including epididymal, mesenteric, and retroperitoneal WAT) were weighed and excised, followed by immediate freezing, and kept at −80° C. for target gene analysis. Heparin (30 units/mL) (Sigma) was added to blood samples. Plasma samples were collected within 30 min by centrifugation at 1600 g for 15 min at 4° C. Plasma was obtained for insulin and leptin assay.

[2] = hepatic lipids in high-fat diet-fed mice; assay type: in vivo; conditions: HF diet-fed C57BL/6J mice, mean ± SE, n=9
Description: as §3
Hepatic lipids were extracted using a previously described protocol. For the hepatic lipid extraction, 0.375 g liver samples were homogenized with 1 mL of distilled water for 5 min. Finally, the dried pellet was resuspended in 0.5 mL of ethanol and analyzed using a triglycerides kit as used for serum lipids.

[3] = test system: FAS; assay: semiquantitative RT-PCR, liver FAS mRNA; assay type: in vivo, C57BL/6J mice; conditions: HF diet-fed mice, normalized to GAPDH, vs HF group
Description: (§4) For part 2, C57BL/6J mice (4 weeks old) were obtained from the National Laboratory Animal Breeding and Research Center. The mice were divided randomly into two groups after 7 days acclimation. The control (CON) group (n=9) was fed a low-fat diet (diet 12450B, Research Diets, Inc., New Brunswick, N.J., USA), whereas the experimental group was fed a 45% high-fat diet (diet 12451, Research Diets, Inc.) for 12 weeks. The compositions of the experimental diets are given in previous studies. […]
(§5) Total RNA from the liver tissue was isolated with a Trizol reagent (Molecular Research Center, Inc., Cincinnati, Ohio, USA) according to the manufacturer's directions. The integrity of the extracted total RNA was examined by 2% agarose gel electrophoresis, and the RNA concentration was determined by ultraviolet (UV) light absorbency at 260 and 280 nm (spectrophotometer U-2800A, Hitachi). […] The relative density of the band was evaluated using AlphaDigiDoc 1201 software (Alpha Innotech Co., San Leandro, Calif., USA). All of the measured PCR products were normalized to the amount of cDNA of GAPDH in each sample. […]

[4] = test system: PPARα; assay: semiquantitative RT-PCR, liver PPARα mRNA; assay type: in vivo, C57BL/6J mice; conditions: HF diet-fed mice, normalized to GAPDH
Description: as §4, §5

[5] = test system: GLUT4; assay: western blot, GLUT4 protein in skeletal muscle; assay type: in vivo, C57BL/6J mice; conditions: HF diet-fed mice
Description: as §1, §2, §4

[6] = test system: G6 Pase; assay: semiquantitative RT-PCR, liver G6 Pase mRNA; assay type: in vivo, C57BL/6J mice; conditions: HF diet-fed mice, normalized to GAPDH, vs HF group
Description: as §4, §5

[7] = test system: Akt; assay: western blot, phospho-Akt (Ser473)/total-Akt in skeletal muscle; assay type: in vivo, C57BL/6J mice; conditions: HF diet-fed mice
Description: as §1, §2, §4

[8] = test system: epididymal WAT and liver tissue; assay: histopathology of epididymal WAT and liver tissue; assay type: in vivo; conditions: HF diet-fed C57BL/6J mice; for hepatocellular ballooning mean score: grade 0 none, 1 a few cells, 2 many cells
Description: as §3
Small pieces of epididymal WAT and liver tissue were fixed with formalin (200 g/kg) neutral buffered solution and embedded in paraffin. Sections (8 μm) were cut and stained with hematoxylin and eosin. For microscopic examination, a microscope (Leica, DM2500) was used, and the images were taken using a Leica Digital camera (DFC-425-C).

[9] = test system: SREBP1c; assay: semiquantitative RT-PCR, liver SREBP1c mRNA; assay type: in vivo, C57BL/6J mice; conditions: HF diet-fed mice, normalized to GAPDH, vs HF group
Description: as §4, §5

[10] = PTA1 0.06 g/kg/day oral gavage 4 weeks
[11] = PTA2 0.12 g/kg/day oral gavage 4 weeks

Question: With C[C@@H]1CC[C@]2(C(=O)O)CC[C@]3(C)C(=CC[C@@H]4[C@@]5(C)C[C@@H](O)[C@H](O)C(C)(C)[C@@H]5CC[C@]43C)[C@@H]2[C@]1(C)O [PTA, tormentic acid] as the compound, how does the “expression levels of phospho-AMPK/total-AMPK” value ([1]; liver tissue, PTA1 0.06 g/kg/day 4 weeks) read?
Answer: significantly increase

Question: What about the “expression levels of phospho-AMPK/total-AMPK” value ([1]; liver tissue, PTA2 0.12 g/kg/day 4 weeks) of the same compound?
Answer: significantly increase

Question: What about the “expression levels of phospho-AMPK/total-AMPK” value ([1]; skeletal muscle, PTA1 0.06 g/kg/day 4 weeks) of the same compound?
Answer: significantly increase

Question: And the “expression levels of phospho-AMPK/total-AMPK” value ([1]; skeletal muscle, PTA2 0.12 g/kg/day 4 weeks)?
Answer: significantly increase

Question: What about the “Liver lipids: Total lipid” value [2, 10] of the same compound?
Answer: 80.1 ± 4.6 mg/g

Question: What about the “Liver lipids: Triacylglycerol” value [2, 10] of the same compound?
Answer: 51.7 ± 5.1 µmol/g

Question: What about the “Liver lipids: Total lipid” value [2, 11] of the same compound?
Answer: 68.2 ± 5.9 mg/g

Question: What about the “Liver lipids: Triacylglycerol” value [2, 11] of the same compound?
Answer: 35.2 µmol/g and 35.2 ± 4.9 µmol/g

Question: What about the “mRNA level of FAS in liver” value ([3]; PTA1 0.06 g/kg/day 4 weeks) of the same compound?
Answer: significantly decrease

Question: And the “mRNA level of FAS in liver” value ([3]; PTA2 0.12 g/kg/day 4 weeks)?
Answer: significantly decrease

Question: What about the “mRNA levels of PPARα in liver” value ([4]; PTA1 0.06 g/kg/day 4 weeks) of the same compound?
Answer: increased

Question: What about the “mRNA levels of PPARα in liver” value ([4]; PTA2 0.12 g/kg/day 4 weeks) of the same compound?
Answer: increased

Question: What about the “membrane protein levels of GLUT4” value ([5]; PTA1 0.06 g/kg/day 4 weeks) of the same compound?
Answer: significantly increased

Question: And the “membrane protein levels of GLUT4” value ([5]; PTA2 0.12 g/kg/day 4 weeks)?
Answer: significantly increased; also recorded: marked increases

Question: And the “mRNA level of G6 Pase in liver” value ([6]; PTA1 0.06 g/kg/day 4 weeks)?
Answer: significantly decrease

Question: And the “mRNA level of G6 Pase in liver” value ([6]; PTA2 0.12 g/kg/day 4 weeks)?
Answer: significantly decrease

Question: And the “expression levels of phospho-Akt/total-Akt” value ([7]; PTA1 0.06 g/kg/day 4 weeks)?
Answer: significantly increased

Question: What about the “expression levels of phospho-Akt/total-Akt” value ([7]; PTA2 0.12 g/kg/day 4 weeks) of the same compound?
Answer: significantly increased

Question: And the “average area of adipocytes (epididymal WAT)” value [8, 10]?
Answer: 2380.9±108.6 μm2

Question: What about the “hepatocellular ballooning mean score” value [8, 10] of the same compound?
Answer: 1.0±0.2

Question: And the “average area of adipocytes (epididymal WAT)” value [8, 11]?
Answer: 2243.2±100.9 μm^2

Question: And the “hepatocellular ballooning mean score” value [8, 11]?
Answer: 0.7±0.2

Question: And the “mRNA level of SREBP1c in liver” value ([9]; PTA1 0.06 g/kg/day 4 weeks)?
Answer: significantly decrease

Question: What about the “mRNA level of SREBP1c in liver” value ([9]; PTA2 0.12 g/kg/day 4 weeks) of the same compound?
Answer: significantly decrease
